From ChEMBL document CHEMBL1137656, “Effects of serum on in vitro susceptibility testing of echinocandins” (Antimicrob Agents Chemother, 2007)
Numbered stars: 1 amine (or outer) side, 2 acyl side, 3 side chain; on linkers, the order of the positions; unused ones are H or OH. Bridge positions count the residues as written; N and C are the ends. Square brackets hold non-standard residues; d marks the D form. Peptide text beside a SMILES is read from it. * marks the point of attachment. hTyr(3S-OH,4S-OH,3'-OSO3H) = N[C@H](C(=O)O)[C@H](O)[C@@H](O)c1ccc(O)c(OS(=O)(=O)O)c1; Orn(4R-OH,5R-OH) = O=C([C@H](C[C@@H](O)[C@@H](O)N[*:3])N[*:1])[*:2]; Pro(3S-OH,4S-Me) = C[C@H]1CN[C@H](C(=O)O)[C@H]1O; X1 = CCCCCOc1ccc(-c2cc(-c3ccc(C(=O)*)cc3)no2)cc1; Gln(3R-OH) = NC(=O)C[C@@H](O)[C@H](N)C(=O)O; Hyp = O=C(O)[C@@H]1C[C@@H](O)CN1

Legend:
Format in all cases: functional
[1] = tested on: Nakaseomyces glabratus; assay: Ratio of MIC50 for Candida glabrata isolate 0049-038 in presence of 50% human serum to MIC50 for Candida glabrata isolate 0049-038 in presence of RPMI 1640 medium
[2] = tested on: Candida tropicalis; assay: Antifungal activity against Candida tropicalis isolate 0022-021 after 24 hrs by CLSI M27-A2 broth microdilution method in presence of 50% human serum; details: isolate 0022-021, 24 h
[3] = tested on: Pichia kudriavzevii; assay: Antifungal activity against Candida krusei ATCC 6258 after 24 hrs by CLSI M27-A2 broth microdilution method in presence of RPMI 1640 medium; details: ATCC 6258, 24 h
[4] = tested on: Nakaseomyces glabratus; assay: Ratio of MIC50 for Candida glabrata isolate 0022-012 in presence of 50% human serum to MIC50 for Candida glabrata isolate 0022-012 in presence of RPMI 1640 medium
[5] = tested on: Aspergillus fumigatus; assay: Ratio of MIC50 for Aspergillus fumigatus isolate 0002-0016 in presence of 50% human serum to MIC50 for Aspergillus fumigatus isolate 0002-0016 in presence of RPMI 1640 medium
[6] = tested on: Candida parapsilosis; assay: Antifungal activity against Candida parapsilosis isolate 0011-013 after 24 hrs by CLSI M27-A2 broth microdilution method in presence of 50% human serum; details: Lodderomyces parapsilosis, isolate 0011-013, 24 h
[7] = tested on: Candida tropicalis; assay: Antifungal activity against Candida tropicalis isolate 0050-028 after 24 hrs by CLSI M27-A2 broth microdilution method in presence of 50% human serum; details: isolate 0050-028, 24 h
[8] = tested on: Candida parapsilosis; assay: Antifungal activity against Candida parapsilosis isolate 0014-074 after 24 hrs by CLSI M27-A2 broth microdilution method in presence of RPMI 1640 medium; details: Lodderomyces parapsilosis, isolate 0014-074, 24 h
[9] = tested on: Aspergillus flavus; assay: Ratio of MIC50 for Aspergillus flavus isolate 0001-061 in presence of 50% human serum to MIC50 for Aspergillus flavus isolate 0001-061 in presence of RPMI 1640 medium
[10] = tested on: Candida parapsilosis; assay: Ratio of MIC50 for Candida parapsilosis ATCC 22019 in presence of 50% human serum to MIC50 for Candida parapsilosis ATCC 22019 in presence of RPMI 1640 medium
[11] = tested on: Candida parapsilosis; assay: Ratio of MIC50 for Candida parapsilosis isolate 0036-030 in presence of 50% human serum to MIC50 for Candida parapsilosis isolate 0036-030 in presence of RPMI 1640 medium
[12] = tested on: Candida parapsilosis; assay: Antifungal activity against Candida parapsilosis isolate 0026-003 after 24 hrs by CLSI M27-A2 broth microdilution method in presence of 50% human serum; details: Lodderomyces parapsilosis, isolate 0026-003, 24 h
[13] = tested on: Clavispora lusitaniae; assay: Antifungal activity against Candida lusitaniae isolate 0015-049 after 24 hrs by CLSI M27-A2 broth microdilution method in presence of 50% human serum
[14] = tested on: Clavispora lusitaniae; assay: Ratio of MIC50 for Candida lusitaniae isolate 0013-002 in presence of 50% human serum to MIC50 for Candida lusitaniae isolate 0013-002 in presence of RPMI 1640 medium
[15] = tested on: Candida parapsilosis; assay: Antifungal activity against Candida parapsilosis isolate 0036-030 after 24 hrs by CLSI M27-A2 broth microdilution method in presence of RPMI 1640 medium; details: Lodderomyces parapsilosis, isolate 0036-030, 24 h
[16] = tested on: Clavispora lusitaniae; assay: Antifungal activity against Candida lusitaniae isolate 0013-002 after 24 hrs by CLSI M27-A2 broth microdilution method in presence of RPMI 1640 medium; details: isolate 0013-002, 24 h
[17] = tested on: Candida albicans; assay: Antifungal activity against Candida albicans isolate 0021-076 after 24 hrs by CLSI M27-A2 broth microdilution method in presence of 50% human serum; details: isolate 0021-076, 24 h
[18] = tested on: Pichia kudriavzevii; assay: Antifungal activity against Candida krusei isolate 0001-058 after 24 hrs by CLSI M27-A2 broth microdilution method in presence of RPMI 1640 medium; details: isolate 0001-058, 24 h
[19] = tested on: Pichia kudriavzevii; assay: Antifungal activity against Candida krusei ATCC 6258 after 24 hrs by CLSI M27-A2 broth microdilution method in presence of 50% human serum; details: ATCC 6258, 24 h
[20] = tested on: Aspergillus fumigatus; assay: Antifungal activity against Aspergillus fumigatus isolate 0002-020 after 24 hrs by CLSI M38-A broth microdilution method in presence of RPMI 1640 medium; details: isolate 0002-020, 24 h
[21] = tested on: Aspergillus fumigatus; assay: Ratio of MIC50 for Aspergillus fumigatus isolate […] in presence of 50% human serum to MIC50 for Aspergillus fumigatus isolate 0020-018 in presence of RPMI 1640 medium
[22] = tested on: Aspergillus fumigatus; assay: Ratio of MIC50 for Aspergillus fumigatus isolate 0002-021 in presence of 50% human serum to MIC50 for Aspergillus fumigatus isolate 0002-021 in presence of RPMI 1640 medium
[23] = tested on: Candida albicans; assay: Antifungal activity against Candida albicans isolate 0012-025 after 24 hrs by CLSI M27-A2 broth microdilution method in presence of RPMI 1640 medium; details: isolate 0012-025, 24 h
[24] = tested on: Candida parapsilosis; assay: Antifungal activity against Candida parapsilosis isolate 0036-030 after 24 hrs by CLSI M27-A2 broth microdilution method in presence of 50% human serum; details: Lodderomyces parapsilosis, isolate 0036-030, 24 h
[25] = tested on: Clavispora lusitaniae; assay: Antifungal activity against Candida lusitaniae isolate 0013-002 after 24 hrs by CLSI M27-A2 broth microdilution method in presence of 50% human serum; details: isolate 0013-002, 24 h
[26] = tested on: Aspergillus fumigatus; assay: Ratio of MIC50 for Aspergillus fumigatus isolate 0002-020 in presence of 50% human serum to MIC50 for Aspergillus fumigatus isolate 0002-020 in presence of RPMI 1640 medium
[27] = tested on: Pichia kudriavzevii; assay: Antifungal activity against Candida krusei isolate 0013-054 after 24 hrs by CLSI M27-A2 broth microdilution method in presence of 50% human serum; details: isolate 0013-054, 24 h
[28] = tested on: Aspergillus flavus; assay: Antifungal activity against Aspergillus flavus isolate 0001-033 after 24 hrs by CLSI M38-A broth microdilution method in presence of 50% human serum; details: isolate 0001-033, 24 h
[29] = tested on: Nakaseomyces glabratus; assay: Antifungal activity against Candida glabrata isolate 0022-012 after 24 hrs by CLSI M27-A2 broth microdilution method in presence of 50% human serum; details: isolate 0022-012, 24 h
[30] = tested on: Pichia kudriavzevii; assay: Ratio of MIC50 for Candida krusei isolate 0001-058 in presence of 50% human serum to MIC50 for Candida krusei isolate 0001-058 in presence of RPMI 1640 medium
[31] = tested on: Pichia kudriavzevii; assay: Antifungal activity against Candida krusei isolate 0001-058 after 24 hrs by CLSI M27-A2 broth microdilution method in presence of 50% human serum; details: isolate 0001-058, 24 h
[32] = tested on: Aspergillus fumigatus; assay: Antifungal activity against Aspergillus fumigatus isolate 0002-021 after 24 hrs by CLSI M38-A broth microdilution method in presence of RPMI 1640 medium; details: isolate 0002-021, 24 h

MIC50 [2]: 2 µg/mL
MIC50 [3]: 0.0625 µg/mL
MIC50 [6]: 4 µg/mL
MIC50 [7]: 32 µg/mL
MIC50 [8]: 0.0156 µg/mL
MIC50 [12]: 64 µg/mL
MIC50 [13]: 4 µg/mL
MIC50 [15]: 0.5 µg/mL
MIC50 [16]: 8 ng/mL
MIC50 [17]: 64 µg/mL
MIC50 [18]: 0.0625 µg/mL
MIC50 [19]: 8 µg/mL
MIC50 [20]: 4 ng/mL
MIC50 [23]: 0.0156 µg/mL
MIC50 [24]: 128 µg/mL
MIC50 [25]: 1 µg/mL
MIC50 [27]: 8 µg/mL
MIC50 [28]: 128 µg/mL
MIC50 [29]: 1 µg/mL
MIC50 [31]: 2 µg/mL
MIC50 [32]: 1 ng/mL
SMILES: CCCCCOc1ccc(-c2cc(-c3ccc(C(=O)N[C@H]4C[C@@H](O)[C@@H](O)NC(=O)[C@@H]5[C@@H](O)[C@@H](C)CN5C(=O)[C@H]([C@H](O)CC(N)=O)NC(=O)[C@H]([C@H](O)[C@@H](O)c5ccc(O)c(OS(=O)(=O)O)c5)NC(=O)[C@@H]5C[C@@H](O)CN5C(=O)[C@H]([C@@H](C)O)NC4=O)cc3)no2)cc1 [MICAFUNGIN] (X1-[Orn(4R-OH,5R-OH)]T[Hyp][hTyr(3S-OH,4S-OH,3'-OSO3H)][Gln(3R-OH)][Pro(3S-OH,4S-Me)]; lactam 1-C)
Ratio [1]: 256
Ratio [4]: 64
Ratio [5]: 64
Ratio [9]: 1024
Ratio [10]: 64
Ratio [11]: 256
Ratio [14]: 128
Ratio [21]: 32
Ratio [22]: 1024
Ratio [26]: 128
Ratio [30]: 32
